Residues, ends and D or L forms follow the SMILES beside them.
Assay: circular dichroism titration in the presence of small unilamellar phospholipid vesicles
Format: physicochemical
Conditions: circular dichroism at 222 nanometers vs pH, DMPC small unilamellar vesicles
Description: FIG. 5A is a graph showing the circular dichroism analysis of the synthetic polypeptide of FIG. 1 in the presence of dimyristoyl phosphatidylcholine (DMPC) vesicles at various pH values. The black squares indicate the initial titration (down). The open circles indicate the reverse titration (up). The open triangles indicate the second titration (down).
The well-known spectroscopic technique of polarized infrared linear dichroism is used to determine the orientation of the alpha-helical domain of the polypeptide. The orientation of the polypeptide in protein/phospholipid multilayers is inferred from the dichroism of two amide vibrations.
FIG. 5A is a graph showing circular dichroism titration of the synthetic polypeptide having the amino acid sequence set forth in FIG. 1 and sequence listing identification number 1, in the presence of a solution containing small unilamellar phospholipid vesicles made from synthetic dimyristoyl phosphatidylcholine. The y axis is millidegrees at 222 nanometers, and the x axis is pH. […] FIG. 5B is a corresponding control graph showing circular dichroism titration of the polypeptide in the […] of lipid molecules.

## CC[C@H](C)[C@H](NC(=O)[C@@H]1CCCN1C(=O)[C@H](CC(N)=O)NC(=O)[C@H](CCC(N)=O)NC(=O)[C@H](CCC(=O)O)NC(=O)CNC(=O)CN)C(=O)N[C@@H](Cc1ccc(O)cc1)C(=O)N[C@@H](Cc1c[nH]c2ccccc12)C(=O)N[C@@H](C)C(=O)N[C@@H](CCCNC(=N)N)C(=O)N[C@@H](Cc1ccc(O)cc1)C(=O)N[C@@H](C)C(=O)N[C@@H](CC(=O)O)C(=O)N[C@@H](Cc1c[nH]c2ccccc12)C(=O)N[C@@H](CC(C)C)C(=O)N[C@@H](Cc1ccccc1)C(=O)N[C@H](C(=O)N[C@H](C(=O)N1CCC[C@H]1C(=O)N[C@@H](CC(C)C)C(=O)N[C@@H](CC(C)C)C(=O)N[C@@H](CC(C)C)C(=O)N[C@@H](CC(C)C)C(=O)N[C@@H](CC(=O)O)C(=O)N[C@@H](CC(C)C)C(=O)N[C@@H](C)C(=O)N[C@@H](CC(C)C)C(=O)N[C@@H](CC(C)C)C(=O)N[C@H](C(=O)N[C@@H](CC(=O)O)C(=O)N[C@@H](C)C(=O)N[C@@H](CC(=O)O)C(=O)N[C@@H](CCC(=O)O)C(=O)NCC(=O)N[C@H](C(=O)O)[C@@H](C)O)C(C)C)[C@@H](C)O)[C@@H](C)O [synthetic polypeptide] (H-GGEQNPIYWARYADWLFTTPLLLLDLALLVDADEGT-OH)
  pKa of formation of a polypeptide alpha-helix: 6.0
